Laboratory results as given in US11191732B2, “Glutaminase inhibitor discovery and nanoparticle-enhanced delivery for cancer therapy” (The Johns Hopkins University, priority 2014, dated 2021).
pIC50: −log10 of the molar value.

How the values were obtained:
[1] = tested on: glutamine-dependent JHU094 pancreatic patient tumor; test: JHU094 pancreatic patient tumor growth in vivo; parameters: species or system mice; conditions: nanoparticle 1.2 mg vs free 0.3125 mg in 100 μl, IV
Excerpt: (§1) DMSO solution per dose, as this was is the highest dose that could be administered based on solubility and injection volume limitations.

[2] = tested on: KRAS-mutant human pancreatic cancer cells; test: Growth of glutamine-addicted pancreatic cancer cells with BPTES; format: cell-based; conditions: full DMEM media, BPTES dissolved in DMSO
Procedure: Cells were grown at 37° C. in a 5% (v/v) CO2 and 95% (v/v) air incubator in full DMEM media.

[3] = BPTES levels in pancreatic tumors after intravenous administration (LC-MS/MS); format: in vivo, mice; conditions: all time points, limit of detection 10 nM
Excerpt: BPTES levels were quantified by LC-MS/MS.
as §1

Metabolic stability = format: in vitro ADME; conditions: oxidation of the sulfide moiety
Excerpt: In compound 4, the terminal aminothiadiazole ring was replaced with a secondary amide, presenting a new scaffold for GLS inhibitors.

GLS = GLS (Homo sapiens (Human), UniProt O94925); test: Inhibition of GLS (established radioactive assay); format: biochemical
Excerpt: All new synthetic compounds can be tested for their ability to inhibit GLS using an already established radioactive assay.

Panc265 tumor = test: Panc265 patient-derived orthotopic pancreatic cancer xenograft tumor growth; format: in vivo; conditions: BPTES nanoparticles 1.2 mg every 3 days IV; gemcitabine 625 μg twice per week IP; 4 weeks
[4] = tested on: resected pancreatic cancer; conditions: 6 months adjuvant treatment after complete macroscopic resection; cited from earlier work
[5] = tested on: resected pancreatic cancer; conditions: six cycles adjuvant, cited from earlier work

Sequence of GLS (O94925 73-669): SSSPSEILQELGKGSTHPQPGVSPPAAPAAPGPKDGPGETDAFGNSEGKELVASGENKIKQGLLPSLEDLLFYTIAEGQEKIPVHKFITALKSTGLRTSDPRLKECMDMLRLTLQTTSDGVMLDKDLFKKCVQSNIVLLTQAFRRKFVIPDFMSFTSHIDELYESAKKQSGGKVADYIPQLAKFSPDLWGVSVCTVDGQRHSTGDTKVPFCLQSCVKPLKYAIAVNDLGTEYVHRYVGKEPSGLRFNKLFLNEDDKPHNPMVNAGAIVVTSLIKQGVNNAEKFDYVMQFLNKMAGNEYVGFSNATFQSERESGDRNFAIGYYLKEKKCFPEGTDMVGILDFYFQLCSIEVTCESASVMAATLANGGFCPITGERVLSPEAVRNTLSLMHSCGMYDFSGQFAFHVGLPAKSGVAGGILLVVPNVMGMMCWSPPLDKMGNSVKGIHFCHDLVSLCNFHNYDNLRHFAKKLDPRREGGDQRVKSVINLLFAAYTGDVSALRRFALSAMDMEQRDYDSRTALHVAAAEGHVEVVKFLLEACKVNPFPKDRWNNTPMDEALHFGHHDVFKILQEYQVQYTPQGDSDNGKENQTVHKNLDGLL

O=C(Cc1ccccc1)Nc1nnc(CCSCCc2nnc(NC(=O)Cc3ccccc3)s2)s1 [BPTES, bis-2-[5-(phenylacetamido)-1,3,4-thiadiazol-2-yl]ethyl sulfide]
effect on tumor growth [1]: no statistical benefit | effect on growth of glutamine-addicted pancreatic cancers [2]: inhibitory to their growth | BPTES level in tumor [3]: < 10 nM

Nc1nnc(CCSCCc2nnc(N)s2)s1 [Compound 2]
metabolic stability (Metabolic stability): metabolically unstable | pIC50 (GLS): 4.00

Nc1nnc(CCCCc2nnc(NC(=O)Cc3ccccc3)s2)s1 [Compound 3]
pIC50 (GLS): 5.72

O=C(CCCCc1nnc(NC(=O)Cc2ccccc2)s1)NCCN1CCCC1 [Compound 4]
pIC50 (GLS): 5.34

O=C(Cc1ccccc1)Nc1nnc(CCCCc2nnc(NC(=O)Cc3ccc(O)cc3)s2)s1 [Compound 5]
pIC50 (GLS): 7.10

O=C(O)CCCCC(=O)Nc1nnc(CCCCc2nnc(NC(=O)Cc3ccccc3)s2)s1 [Compound 6]
pIC50 (GLS): 7.00

O=C(O)CCCCCC(=O)Nc1nnc(CCCCc2nnc(NC(=O)Cc3ccccc3)s2)s1 [Compound 7]
pIC50 (GLS): 7.00

Nc1ccn([C@@H]2O[C@H](CO)[C@@H](O)C2(F)F)c(=O)n1 [gemcitabine]
reduction in tumor growth (Panc265 tumor): 40-50% | Median OS [4]: 23.6 months | survival rate at 10 years ([5]; observation-alone arm 7.7%): 12.2% | survival rate at 5 years ([5]; observation-alone arm 10.4%): 20.7%
